Data taken from patent US8247211B2, “Glycopeptide antibiotics” (American Cyanamid Company, priority 2001, dated 2012).
≈ marks a conversion by molar mass, not a printed value. Each block holds one molecule with its values, some of them ahead of it.

Legend:
Test in all cases: In vitro antibacterial evaluation: minimum inhibitory concentration (MIC), broth dilution method
Assay type in all cases: cell-based
Enterococcus sp. = settings: broth dilution, 5×10^5 CFU/mL, 18 hours at 35° C.
Procedure: (§1) The minimum inhibitory concentration (MIC), the lowest concentration of the antibiotic which inhibits growth of the test organism, is determined by the broth dilution method using Muller-Hinton II […] (Baltimore Biological Laboratories) following the recommendations of the National Committee for Clinical Laboratory Standards [Methods for dilution antimicrobial susceptibility tests for bacteria that grow aerobically, approved standard M7-A2, National Committee for Clinical Laboratory Standards, Villanova, Pa].
(§2) An inoculum level of 5×10^5 CFU/mL, and a range of antibiotic concentrations (64-0.06 μg/mL) is used. […] The test organisms include a spectrum of Gram-positive bacteria comprised of Staphylococcus sp., Streptococcus sp. and Enterococcus sp. These organisms include recent clinical isolates that are resistant to methicillin, penicillin and/or vancomycin.

Staphylococcus sp. = settings: for MIC Staphylococcus aureus (ATCC 29213): strain ATCC 29213; for MIC Staphylococcus aureus (GC 1131): strain GC 1131; for MIC Staphylococcus aureus (GC 3051): strain GC 3051; for MIC Staphylococcus aureus (GC 3053): strain GC 3053; for MIC Staphylococcus aureus (GC 4541): strain GC 4541; for MIC Staphylococcus aureus (GC 4542): strain GC 4542; for MIC Staphylococcus aureus (GC 4544): strain GC 4544; for MIC Staphylococcus aureus (GC 4545): strain GC 4545
Procedure: as §1, §2

Streptococcus sp. = settings: broth dilution, 5×10^5 CFU/mL, 18 hours at 35° C.
Procedure: as §1, §2

Escherichia coli = settings: 5×10^5 CFU/mL, 18 hours at 35° C.
Procedure: as §1, §2

[1] = broth dilution, 5×10^5 CFU/mL, 18 hours at 35° C.
[2] = broth dilution, 18 hours at 35° C.
[3] = strain GC 4543, broth dilution, 18 hours at 35° C.
[4] = strain GC 4546, broth dilution, 18 hours at 35° C.
[5] = strain GC 4547, broth dilution, 18 hours at 35° C.
[6] = strain GC 4548, broth dilution, 18 hours at 35° C.
[7] = strain GC 4549, broth dilution, 18 hours at 35° C.
[8] = strain GC 4551, broth dilution, 18 hours at 35° C.
[9] = strain GC 6257, broth dilution, 18 hours at 35° C.

MIC Enterococccus avium (GC 4558) (Enterococcus sp.): 16 µg/mL (≈ 11.5 µM)
MIC Enterococccus faecalis (ATCC 29212) (Enterococcus sp.): 8 µg/mL (≈ 5.76 µM)
MIC Enterococccus faecalis (GC 2691) (Enterococcus sp.): 8 µg/mL (≈ 5.76 µM)
MIC Enterococccus faecalis (GC 3059) (Enterococcus sp.): 16 µg/mL (≈ 11.5 µM)
MIC Enterococccus faecalis (GC 4552) (Enterococcus sp.): 8 µg/mL (≈ 5.76 µM)
MIC Enterococccus faecalis (GC 4553) (Enterococcus sp.): 16 µg/mL (≈ 11.5 µM)
MIC Enterococccus faecalis (GC 4554) (Enterococcus sp.): 8 µg/mL (≈ 5.76 µM)
MIC Enterococccus faecalis (GC 6189) (Enterococcus sp.): 8 µg/mL (≈ 5.76 µM)
MIC Enterococccus faecium (GC 2243) (Enterococcus sp.): 8 µg/mL (≈ 5.76 µM)
MIC Enterococccus faecium (GC 4556) (Enterococcus sp.): 8 µg/mL (≈ 5.76 µM)
MIC Enterococccus faecium (GC 4557) (Enterococcus sp.): 4 µg/mL (≈ 2.88 µM)
MIC Enterococcus faecalis (GC 2242) (Enterococcus sp.): 8 µg/mL (≈ 5.76 µM)
MIC Coagulase Negative Staphylococcus (GC 4547) (Staphylococcus sp.; [1]): 2 µg/mL (≈ 1.44 µM)
MIC Coagulase Negative Staphylococcus (GC 4548) (Staphylococcus sp.; [1]): 1 µg/mL (≈ 0.72 µM)
MIC Coagulase Negative Staphylococcus (GC 4549) (Staphylococcus sp.; [1]): 1 µg/mL (≈ 0.72 µM)
MIC Coagulase Negative Staphylococcus (GC 4551) (Staphylococcus sp.; [1]): 2 µg/mL (≈ 1.44 µM)
MIC Coagulase Negative Staphylococcus (GC 6257) (Staphylococcus sp.; [1]): 1 µg/mL (≈ 0.72 µM)
MIC Staphylococcus aureus-SMITH (GC 4543) (Staphylococcus sp.; [1]): 2 µg/mL (≈ 1.44 µM)
MIC Staphylococcus aureus (ATCC 29213) (Staphylococcus sp.): 4 µg/mL (≈ 2.88 µM)
MIC Staphylococcus aureus (ATCC 29213) (Staphylococcus sp.; [2]): 4 µg/mL (≈ 2.88 µM)
MIC Staphylococcus aureus (GC 1131) (Staphylococcus sp.): 2 µg/mL (≈ 1.44 µM)
MIC Staphylococcus aureus (GC 1131) (Staphylococcus sp.; [2]): 2 µg/mL (≈ 1.44 µM)
MIC Staphylococcus aureus (GC 3051) (Staphylococcus sp.): 2 µg/mL (≈ 1.44 µM)
MIC Staphylococcus aureus (GC 3051) (Staphylococcus sp.; [2]): 2 µg/mL (≈ 1.44 µM)
MIC Staphylococcus aureus (GC 3053) (Staphylococcus sp.): 4 µg/mL (≈ 2.88 µM)
MIC Staphylococcus aureus (GC 3053) (Staphylococcus sp.; [2]): 4 µg/mL (≈ 2.88 µM)
MIC Staphylococcus aureus (GC 4541) (Staphylococcus sp.): 2 µg/mL (≈ 1.44 µM)
MIC Staphylococcus aureus (GC 4541) (Staphylococcus sp.; [2]): 2 µg/mL (≈ 1.44 µM)
MIC Staphylococcus aureus (GC 4542) (Staphylococcus sp.): 2 µg/mL (≈ 1.44 µM)
MIC Staphylococcus aureus (GC 4542) (Staphylococcus sp.; [2]): 2 µg/mL (≈ 1.44 µM)
MIC Staphylococcus aureus-SMITH (GC 4543) (Staphylococcus sp.; [3]): 2 µg/mL (≈ 1.44 µM)
MIC Staphylococcus aureus (GC 4544) (Staphylococcus sp.): 4 µg/mL (≈ 2.88 µM)
MIC Staphylococcus aureus (GC 4544) (Staphylococcus sp.; [2]): 4 µg/mL (≈ 2.88 µM)
MIC Staphylococcus aureus (GC 4545) (Staphylococcus sp.): 2 µg/mL (≈ 1.44 µM)
MIC Staphylococcus aureus (GC 4545) (Staphylococcus sp.; [2]): 2 µg/mL (≈ 1.44 µM)
MIC Coagulase Negative Staphylococcus (GC 4547) (Staphylococcus sp.; [5]): 2 µg/mL (≈ 1.44 µM)
MIC Coagulase Negative Staphylococcus (GC 4548) (Staphylococcus sp.; [6]): 1 µg/mL (≈ 0.72 µM)
MIC Coagulase Negative Staphylococcus (GC 4549) (Staphylococcus sp.; [7]): 1 µg/mL (≈ 0.72 µM)
MIC Coagulase Negative Staphylococcus (GC 4551) (Staphylococcus sp.; [8]): 2 µg/mL (≈ 1.44 µM)
MIC Coagulase Negative Staphylococcus (GC 6257) (Staphylococcus sp.; [9]): 1 µg/mL (≈ 0.72 µM)
MIC Streptococcus agalactiae (GC 4564) (Streptococcus sp.): 0.5 µg/mL (≈ 0.36 µM)
MIC Streptococcus pneumoniae (GC 1894) (Streptococcus sp.): 0.12 µg/mL (≈ 0.0864 µM)
MIC Streptococcus pneumoniae (GC 4565) (Streptococcus sp.): 0.25 µg/mL (≈ 0.18 µM)
MIC Streptococcus pneumonine (ATCC 6301) (Streptococcus sp.): 0.25 µg/mL (≈ 0.18 µM)
MIC Streptococcus pyogenes (GC 4563) (Streptococcus sp.): 0.5 µg/mL (≈ 0.36 µM)
MIC Escherichia coli (ATCC 25922) (Escherichia coli): >64 µg/mL
MIC Escherichia coli (GC 4559) (Escherichia coli): 32 µg/mL (≈ 23 µM)
MIC Escherichia coli (GC 4560) (Escherichia coli): 1 µg/mL (≈ 0.72 µM)
Compound: CC(c1ccccc1)C1NC(=O)CNC(=O)C(CO)NC(=O)C(C(O)C2CNC(=N)N2C2OC(CO)C(O)C(O)C2O)NC(=O)C(C(O)C2CNC(=N)N2)NC(=O)C(Cc2ccc(OC3OC(CO)C(OC4OC5COC(c6cccs6)OC5C(O)C4O)C(O)C3O)cc2)NC1=O (stereo not drawn) [Example 132, Cyclo[glycyl-β-methylphenylalanyl-O-[4-O-[4,6-O-(2-thienylmethylene)hexopyranosyl]-hexopyranosyl]tyrosyl-3-(2-iminoimidazolidin-4-yl)seryl-3-(3-hexopyranosyl-2-iminoimidazolidin-4-yl)serylseryl]]
MIC Staphylococcus haemolyticus (GC 4546) (Staphylococcus sp.; [1]): 1 µg/mL (≈ 0.72 µM)
MIC Staphylococcus haemolyticus (GC 4546) (Staphylococcus sp.; [4]): 1 µg/mL (≈ 0.72 µM)

MIC Enterococccus avium (GC 4558) (Enterococcus sp.): 8 µg/mL (≈ 5.76 µM)
MIC Enterococccus faecalis (ATCC 29212) (Enterococcus sp.): 8 µg/mL (≈ 5.76 µM)
MIC Enterococccus faecalis (GC 2691) (Enterococcus sp.): 8 µg/mL (≈ 5.76 µM)
MIC Enterococccus faecalis (GC 3059) (Enterococcus sp.): 8 µg/mL (≈ 5.76 µM)
MIC Enterococccus faecalis (GC 4552) (Enterococcus sp.): 8 µg/mL (≈ 5.76 µM)
MIC Enterococccus faecalis (GC 4553) (Enterococcus sp.): 8 µg/mL (≈ 5.76 µM)
MIC Enterococccus faecalis (GC 4554) (Enterococcus sp.): 8 µg/mL (≈ 5.76 µM)
MIC Enterococccus faecalis (GC 6189) (Enterococcus sp.): 4 µg/mL (≈ 2.88 µM)
MIC Enterococccus faecium (GC 2243) (Enterococcus sp.): 8 µg/mL (≈ 5.76 µM)
MIC Enterococccus faecium (GC 4556) (Enterococcus sp.): 8 µg/mL (≈ 5.76 µM)
MIC Enterococccus faecium (GC 4557) (Enterococcus sp.): 2 µg/mL (≈ 1.44 µM)
MIC Enterococcus faecalis (GC 2242) (Enterococcus sp.): 4 µg/mL (≈ 2.88 µM)
MIC Coagulase Negative Staphylococcus (GC 4547) (Staphylococcus sp.; [1]): 1 µg/mL (≈ 0.72 µM)
MIC Coagulase Negative Staphylococcus (GC 4548) (Staphylococcus sp.; [1]): <0.5 µg/mL
MIC Coagulase Negative Staphylococcus (GC 4549) (Staphylococcus sp.; [1]): 1 µg/mL (≈ 0.72 µM)
MIC Coagulase Negative Staphylococcus (GC 4551) (Staphylococcus sp.; [1]): 1 µg/mL (≈ 0.72 µM)
MIC Coagulase Negative Staphylococcus (GC 6257) (Staphylococcus sp.; [1]): 1 µg/mL (≈ 0.72 µM)
MIC Staphylococcus aureus-SMITH (GC 4543) (Staphylococcus sp.; [1]): 1 µg/mL (≈ 0.72 µM)
MIC Staphylococcus aureus (ATCC 29213) (Staphylococcus sp.): 1 µg/mL (≈ 0.72 µM)
MIC Staphylococcus aureus (ATCC 29213) (Staphylococcus sp.; [2]): 1 µg/mL (≈ 0.72 µM)
MIC Staphylococcus aureus (GC 1131) (Staphylococcus sp.): 2 µg/mL (≈ 1.44 µM)
MIC Staphylococcus aureus (GC 1131) (Staphylococcus sp.; [2]): 2 µg/mL (≈ 1.44 µM)
MIC Staphylococcus aureus (GC 3051) (Staphylococcus sp.): 1 µg/mL (≈ 0.72 µM)
MIC Staphylococcus aureus (GC 3051) (Staphylococcus sp.; [2]): 1 µg/mL (≈ 0.72 µM)
MIC Staphylococcus aureus (GC 3053) (Staphylococcus sp.): 4 µg/mL (≈ 2.88 µM)
MIC Staphylococcus aureus (GC 3053) (Staphylococcus sp.; [2]): 4 µg/mL (≈ 2.88 µM)
MIC Staphylococcus aureus (GC 4541) (Staphylococcus sp.): 1 µg/mL (≈ 0.72 µM)
MIC Staphylococcus aureus (GC 4541) (Staphylococcus sp.; [2]): 1 µg/mL (≈ 0.72 µM)
MIC Staphylococcus aureus (GC 4542) (Staphylococcus sp.): 2 µg/mL (≈ 1.44 µM)
MIC Staphylococcus aureus (GC 4542) (Staphylococcus sp.; [2]): 2 µg/mL (≈ 1.44 µM)
MIC Staphylococcus aureus-SMITH (GC 4543) (Staphylococcus sp.; [3]): 1 µg/mL (≈ 0.72 µM)
MIC Staphylococcus aureus (GC 4544) (Staphylococcus sp.): 2 µg/mL (≈ 1.44 µM)
MIC Staphylococcus aureus (GC 4544) (Staphylococcus sp.; [2]): 2 µg/mL (≈ 1.44 µM)
MIC Staphylococcus aureus (GC 4545) (Staphylococcus sp.): 1 µg/mL (≈ 0.72 µM)
MIC Staphylococcus aureus (GC 4545) (Staphylococcus sp.; [2]): 1 µg/mL (≈ 0.72 µM)
MIC Coagulase Negative Staphylococcus (GC 4547) (Staphylococcus sp.; [5]): 1 µg/mL (≈ 0.72 µM)
MIC Coagulase Negative Staphylococcus (GC 4548) (Staphylococcus sp.; [6]): <0.5 µg/mL
MIC Coagulase Negative Staphylococcus (GC 4549) (Staphylococcus sp.; [7]): 1 µg/mL (≈ 0.72 µM)
MIC Coagulase Negative Staphylococcus (GC 4551) (Staphylococcus sp.; [8]): 1 µg/mL (≈ 0.72 µM)
MIC Coagulase Negative Staphylococcus (GC 6257) (Staphylococcus sp.; [9]): 1 µg/mL (≈ 0.72 µM)
MIC Streptococcus agalactiae (GC 4564) (Streptococcus sp.): <0.5 µg/mL
MIC Streptococcus pneumoniae (GC 1894) (Streptococcus sp.): <0.5 µg/mL
MIC Streptococcus pneumoniae (GC 4565) (Streptococcus sp.): 4 µg/mL (≈ 2.88 µM)
MIC Streptococcus pneumonine (ATCC 6301) (Streptococcus sp.): <0.5 µg/mL
MIC Streptococcus pyogenes (GC 4563) (Streptococcus sp.): <0.5 µg/mL
MIC Escherichia coli (ATCC 25922) (Escherichia coli): 64 µg/mL (≈ 46.1 µM)
MIC Escherichia coli (GC 4559) (Escherichia coli): 32 µg/mL (≈ 23 µM)
MIC Escherichia coli (GC 4560) (Escherichia coli): <0.5 µg/mL
Compound: CC(c1ccccc1)C1NC(=O)CNC(=O)C(CO)NC(=O)C(C(O)C2CNC(=N)N2C2OC(CO)C(O)C(O)C2O)NC(=O)C(C(O)C2CNC(=N)N2)NC(=O)C(Cc2ccc(OC3OC(CO)C(OC4OC5COC(c6ccsc6)OC5C(O)C4O)C(O)C3O)cc2)NC1=O (stereo not drawn) [Example 133, Cyclo[glycyl-β-methylphenylalanyl-O-[4-O-[4,6-O-(3-thienylmethylene)hexopyranosyl]-hexopyranosyl]tyrosyl-3-(2-iminoimidazolidin-4-yl)seryl-3-(3-hexopyranosyl-2-iminoimidazolidin-4-yl)serylseryl]]
MIC Staphylococcus haemolyticus (GC 4546) (Staphylococcus sp.; [1]): 1 µg/mL (≈ 0.72 µM)
MIC Staphylococcus haemolyticus (GC 4546) (Staphylococcus sp.; [4]): 1 µg/mL (≈ 0.72 µM)
